The source of these data is PubChem BioAssay (NCI).

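Five compound concentrations were applied to cells in 96-well plates for 48 hours; endpoints were derived by simple linear interpolation of the resulting dose-response curve. Definition used: TGI = concentration required for complete inhibition of growth.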 Where a SMILES comes first, the peptide text is derived from it. The star is where a group is joined. Boc = CC(C)(C)OC(=O)*

One assay deals with LXFL 529 NSCLC. The assay can be described thus: NCI anticancer screen, dose series, 48 h.
Regarding `O=c1nc(NC2CCCCO2)ccn1CCO` (configuration not stated), the TGI was more than 100 µM.

`COC(=O)c1onc(-c2c(OC)cc(OC)cc2OC)c1C(=O)OC` showed a TGI of more than 100 µM.

`CCCCCCCOc1ccc(/C=C\c2cc[n+](CCCCCCCC[n+]3ccc(/C=C\c4ccc(OCCCCCCC)cc4)cc3)cc2)cc1` came in with a TGI of 34.8 µM.

`CC(C)(C)OC(=O)NC(Cc1ccc(O)cc1)C(=O)N1CCCC1C(=O)O` (stereo not drawn) (Boc-Tyr-Pro-OH; configuration not given here) displayed a TGI of more than 100 µM.

Regarding `O=C(O)c1ccc(C2COc3ccc(Cl)cc3C2)cc1` (configuration not stated), the TGI is more than 100 µM.

In turn, `CC(=O)NC(CCCNC(=O)N(CCCl)N=O)C(=O)NCc1ccccc1` (configuration not stated) returned a TGI of more than 100 µM.

For `COc1cccc(OC)c1C(=O)OCc1ccccc1`, the TGI is more than 100 µM.

For the molecule `Cc1ccc(/C=C/C(=O)C(C)(C)CN2CCCCC2)cc1`, the TGI turned out to be 19.4 µM.

As to `CC(=O)CN(Cc1cc(C)c2c(c1)c1ccccc1n2Cc1ccccc1)S(=O)(=O)c1ccc(C)cc1`, the TGI was more than 100 µM.

On to `O=C1NC(=O)C2C(=O)NC(=O)C1C2c1c(Cl)cccc1Cl` (configuration not stated), for which the TGI is more than 100 µM.

`O=C1OC(Cc2ccccc2)(N2CCCC2=O)C1c1ccccc1` (configuration not stated): the TGI was more than 100 µM.

In turn, `CC(=O)C(CN(CC(C)C)CC(C)C)C(c1ccccc1)c1c(O)c2ccccc2oc1=O` (configuration not stated) came in with a TGI of more than 100 µM.

In the case of `CC1(C)OC(=O)C(C#N)=C1/C=C/c1coc2ccc(Cl)cc2c1=O`, the TGI is more than 100 µM.

The subject of another assay is HOP-92 NSCLC. The assay can be described thus: NCI anticancer screen, dose series, 48 h.
`COc1ccc2c(c1)C(=O)C1CC(=O)CCC21` (configuration not stated) showed a TGI of more than 100 µM.

On to `COc1cccc(NC(=O)CSc2nnc(-c3ccc(NC(C)=O)cc3)o2)c1`, for which the TGI is more than 100 µM.

`Clc1ccc(Nc2nc3ccccc3nc2-c2cccs2)cc1Cl` gave a TGI of 78.8 µM.

`CCn1c2ccccc2c2ccc3c(c21)C(=O)C=CC3=O`: the TGI was 30.3 µM.

The molecule `O=c1nc(NC2CCCCO2)ccn1CCO` (configuration not stated) returned a TGI of more than 100 µM.

`COC(=O)c1onc(-c2c(OC)cc(OC)cc2OC)c1C(=O)OC` came in with a TGI of more than 100 µM.

`CCCCCCCOc1ccc(/C=C\c2cc[n+](CCCCCCCC[n+]3ccc(/C=C\c4ccc(OCCCCCCC)cc4)cc3)cc2)cc1` returned a TGI of more than 100 µM.

In turn, `CC(C)(C)OC(=O)NC(Cc1ccc(O)cc1)C(=O)N1CCCC1C(=O)O` (stereo not drawn) (Boc-Tyr-Pro-OH; configuration not given here) showed a TGI of more than 100 µM.

Turning to `O=C(O)c1ccc(C2COc3ccc(Cl)cc3C2)cc1` (configuration not stated), the TGI was more than 100 µM.

`CC(=O)NC(CCCNC(=O)N(CCCl)N=O)C(=O)NCc1ccccc1` (configuration not stated) displayed a TGI of more than 100 µM.

On to `COc1cccc(OC)c1C(=O)OCc1ccccc1`, for which the TGI was more than 100 µM.

On to `CC(=O)CN(Cc1cc(C)c2c(c1)c1ccccc1n2Cc1ccccc1)S(=O)(=O)c1ccc(C)cc1`, for which the TGI was more than 100 µM.

For the molecule `O=C1NC(=O)C2C(=O)NC(=O)C1C2c1c(Cl)cccc1Cl` (configuration not stated), the TGI was more than 100 µM.

In the case of `O=C1OC(Cc2ccccc2)(N2CCCC2=O)C1c1ccccc1` (configuration not stated), the TGI was more than 100 µM.

As for `CC(=O)C(CN(CC(C)C)CC(C)C)C(c1ccccc1)c1c(O)c2ccccc2oc1=O` (configuration not stated), the TGI was more than 100 µM.

A further assay deals with UACC-62 melanoma. The assay can be described thus: NCI anticancer screen, dose series, 48 h.
For the molecule `COc1ccc2c(c1)C(=O)C1CC(=O)CCC21` (configuration not stated), the TGI was more than 100 µM.

`COc1cccc(NC(=O)CSc2nnc(-c3ccc(NC(C)=O)cc3)o2)c1` returned a TGI of more than 100 µM.

Regarding `Clc1ccc(Nc2nc3ccccc3nc2-c2cccs2)cc1Cl`, the TGI was more than 100 µM.

In turn, `O=c1nc(NC2CCCCO2)ccn1CCO` (configuration not stated) registered a TGI of more than 100 µM.

Consider `COC(=O)c1onc(-c2c(OC)cc(OC)cc2OC)c1C(=O)OC`, for which the TGI was more than 100 µM.

On to `CCCCCCCOc1ccc(/C=C\c2cc[n+](CCCCCCCC[n+]3ccc(/C=C\c4ccc(OCCCCCCC)cc4)cc3)cc2)cc1`, for which the TGI is more than 100 µM.

`CC(C)(C)OC(=O)NC(Cc1ccc(O)cc1)C(=O)N1CCCC1C(=O)O` (stereo not drawn) (Boc-Tyr-Pro-OH; configuration not given here) returned a TGI of more than 100 µM.

With `O=C(O)c1ccc(C2COc3ccc(Cl)cc3C2)cc1` (configuration not stated), the TGI is more than 100 µM.

`CC(=O)NC(CCCNC(=O)N(CCCl)N=O)C(=O)NCc1ccccc1` (configuration not stated) gave a TGI of more than 100 µM.

In turn, `COc1cccc(OC)c1C(=O)OCc1ccccc1` came in with a TGI of more than 100 µM.

`Cc1ccc(/C=C/C(=O)C(C)(C)CN2CCCCC2)cc1` had a TGI of 30.3 µM.

`CC(=O)CN(Cc1cc(C)c2c(c1)c1ccccc1n2Cc1ccccc1)S(=O)(=O)c1ccc(C)cc1` had a TGI of more than 100 µM.

Molecule `O=C1NC(=O)C2C(=O)NC(=O)C1C2c1c(Cl)cccc1Cl` (configuration not stated) gave a TGI of more than 100 µM.

Molecule `O=C1OC(Cc2ccccc2)(N2CCCC2=O)C1c1ccccc1` (configuration not stated) had a TGI of more than 100 µM.

`CC(=O)C(CN(CC(C)C)CC(C)C)C(c1ccccc1)c1c(O)c2ccccc2oc1=O` (configuration not stated) showed a TGI of more than 100 µM.

`CC1(C)OC(=O)C(C#N)=C1/C=C/c1coc2ccc(Cl)cc2c1=O` registered a TGI of 89.8 µM.

The test system of the next assay is XF 498 CNS. The assay can be described thus: NCI anticancer screen, dose series, 48 h.
`Clc1ccc(Nc2nc3ccccc3nc2-c2cccs2)cc1Cl` came in with a TGI of more than 100 µM.

Consider `CCn1c2ccccc2c2ccc3c(c21)C(=O)C=CC3=O`, for which the TGI was 12.9 µM.

The molecule `O=c1nc(NC2CCCCO2)ccn1CCO` (configuration not stated) registered a TGI of more than 100 µM.

In the case of `COC(=O)c1onc(-c2c(OC)cc(OC)cc2OC)c1C(=O)OC`, the TGI is more than 100 µM.

In turn, `CC(C)(C)OC(=O)NC(Cc1ccc(O)cc1)C(=O)N1CCCC1C(=O)O` (stereo not drawn) (Boc-Tyr-Pro-OH; configuration not given here) yielded a TGI of more than 100 µM.

Regarding `O=C(O)c1ccc(C2COc3ccc(Cl)cc3C2)cc1` (configuration not stated), the TGI was more than 100 µM.

As to `CC(=O)NC(CCCNC(=O)N(CCCl)N=O)C(=O)NCc1ccccc1` (configuration not stated), the TGI was more than 100 µM.

The molecule `COc1cccc(OC)c1C(=O)OCc1ccccc1` registered a TGI of more than 100 µM.

With `Cc1ccc(/C=C/C(=O)C(C)(C)CN2CCCCC2)cc1`, the TGI came out at 25.3 µM.

On to `CC(=O)CN(Cc1cc(C)c2c(c1)c1ccccc1n2Cc1ccccc1)S(=O)(=O)c1ccc(C)cc1`, for which the TGI was more than 100 µM.

`O=C1NC(=O)C2C(=O)NC(=O)C1C2c1c(Cl)cccc1Cl` (configuration not stated): the TGI was more than 100 µM.

Regarding `O=C1OC(Cc2ccccc2)(N2CCCC2=O)C1c1ccccc1` (configuration not stated), the TGI is 88.5 µM.

A further assay relates to RXF-631 renal. The assay can be described thus: NCI anticancer screen, dose series, 48 h.
Molecule `COc1ccc2c(c1)C(=O)C1CC(=O)CCC21` (configuration not stated) returned a TGI of more than 100 µM.

`Clc1ccc(Nc2nc3ccccc3nc2-c2cccs2)cc1Cl`: the TGI is more than 100 µM.

Regarding `O=c1nc(NC2CCCCO2)ccn1CCO` (configuration not stated), the TGI was more than 100 µM.

In turn, `CC(C)(C)OC(=O)NC(Cc1ccc(O)cc1)C(=O)N1CCCC1C(=O)O` (stereo not drawn) (Boc-Tyr-Pro-OH; configuration not given here) returned a TGI of more than 100 µM.

Consider `Cc1ccc(/C=C/C(=O)C(C)(C)CN2CCCCC2)cc1`, for which the TGI stood at 32.1 µM.

`CC(=O)CN(Cc1cc(C)c2c(c1)c1ccccc1n2Cc1ccccc1)S(=O)(=O)c1ccc(C)cc1` yielded a TGI of more than 100 µM.
